{
  "source": "patent US20030092759A1",
  "about": "“Anticonvulsant derivatives useful for the treatment of restless limb syndrome and periodic limb movement disorder” (priority 2001, published 2003)",
  "key": {"depression": {"tested_on": "depression", "experiment": "clinical case study, concurrent depression (Example 1)", "assay_type": "in vivo, human", "conditions": "Example 1, patient; sertraline HCl 100 mg/day added to topiramate 75 mg/day", "procedure": "(§1) Prior to treatment, within 15 minutes of falling asleep, the patient was awakened by uncontrollable jerking of their legs. […] The patient had also used lorazepam and alprazolam to treat the RLS, with some benefit.\n(§2) The patient was switched to topiramate, initially at 25 mg, with a gradual increase in dosage to 75 mg/day for treatment of the RLS. Sertraline HCl at 100 mg/day was added for the treatment of their concurrent depression. Lorazepam and alprazolam were discontinued. The RLS and depression symptoms were both reduced."}, "RLS symptoms": {"tested_on": "RLS symptoms", "conditions": "case study report, Hargrave and Beckley 1998; cited from earlier work"}, "[1]": {"tested_on": "restless legs syndrome (RLS)", "experiment": "clinical case studies of patients with restless legs syndrome", "assay_type": "in vivo, human", "conditions": "for benefit of earlier treatment of the RLS: before topiramate; for benefit in controlling the RLS, earlier treatment: used in the previous 15 years", "procedure": "The ability of the compounds of formula I to treat restless legs syndrome, restless arm syndrome and associated sleep disorders is based on the results of recent clinical case studies, as described in more detail below.\nas §1, §2\nIn the previous 15 years, the patient had also used carisoprodol, chlordiazepoxide HCl, clorazepate dipotassium, meprobamate, phenobarbital, flurazepam HCl, promethazine, levodopa and carbidopa, with some benefit in controlling the RLS.\nTopiramate was started at 25 mg/day and increased gradually to 300 mg/day during a six month period.\nThe patient was a person, with diagnosed recurrent unipolar depression, post traumatic stress disorder, panic disorder, nicotine, alcohol and cannabis dependency. The patient also complained of migraine headaches and restless leg syndrome.\nThe patient was started at 25 mg HS topiramate, with dosage increased to 100 mg HS and then further increased to a final dosage of 200 mg HS. Concurrent pharmacotherapy included clonazepam at 2 mg/day, desipramine HCl at 10 mg/day, clonidine at […] b.i.d., mirtazepine at 15 mg HS, triamcinolone acetonide prn, albuterol prn, potassium at […], A to Z multivitamin 1×/day and fluticasone propionate prn."}, "[2]": {"tested_on": "simple and complex partial seizures and secondarily generalized seizures", "conditions": "adjunctive therapy or monotherapy; cited from earlier work"}, "seizures": {"tested_on": "seizures", "conditions": "several rodent models of epilepsy; cited from earlier work"}, "kindled epilepsy": {"tested_on": "kindled epilepsy", "conditions": "animal model of kindled epilepsy; cited from earlier work"}, "[3]": {"experiment": "side effects reported in the clinical case studies", "assay_type": "in vivo, human", "conditions": "Example 2, person; 5 mg/day for the RLS"}},
  "note": "Counter-ions that a name gives are not always drawn.",
  "data": [
    {"smiles": "CN[C@H]1CC[C@@H](c2ccc(Cl)c(Cl)c2)c2ccccc21", "note": "[Sertraline HCl]", "values": [
      {"measurement": "depression symptoms", "setting": "depression", "value": "reduced"},
      {"measurement": "change of RLS symptoms associated with the drug", "setting": "RLS symptoms", "value": "increase in RLS symptoms"}
    ]},
    {"smiles": "Cc1nnc2n1-c1ccc(Cl)cc1C(c1ccccc1)=NC2", "note": "[alprazolam]", "values": [
      {"measurement": "benefit of earlier treatment of the RLS", "setting": "[1]; Example 1, patient", "value": "some benefit"}
    ]},
    {"smiles": "C[C@@](Cc1ccc(O)c(O)c1)(NN)C(=O)O", "note": "[carbidopa]", "values": [
      {"measurement": "benefit in controlling the RLS, earlier treatment", "setting": "[1]; Example 2, person", "value": "some benefit"}
    ]},
    {"smiles": "CCCC(C)(COC(N)=O)COC(=O)NC(C)C", "note": "(stereo not shown) [carisoprodol]", "values": [
      {"measurement": "benefit in controlling the RLS, earlier treatment", "setting": "[1]; Example 2, person", "value": "some benefit"}
    ]},
    {"smiles": "CNC1=Nc2ccc(Cl)cc2C(c2ccccc2)=[N+]([O-])C1", "note": "[chlordiazepoxide HCl]", "values": [
      {"measurement": "benefit in controlling the RLS, earlier treatment", "setting": "[1]; Example 2, person", "value": "some benefit"}
    ]},
    {"smiles": "O=C1CN=C(c2ccccc2Cl)c2cc([N+](=O)[O-])ccc2N1", "note": "[clonazepam]", "values": [
      {"measurement": "effect on the RLS symptoms", "setting": "[1]; Example 2, person, 2-4 mg/day", "value": "very little positive effect"}
    ]},
    {"smiles": "O=C(O)C1N=C(c2ccccc2)c2cc(Cl)ccc2NC1=O", "note": "(stereo not shown) [clorazepate dipotassium]", "values": [
      {"measurement": "benefit in controlling the RLS, earlier treatment", "setting": "[1]; Example 2, person", "value": "some benefit"}
    ]},
    {"smiles": "CCN(CC)CCN1C(=O)CN=C(c2ccccc2F)c2cc(Cl)ccc21", "note": "[flurazepam HCl]", "values": [
      {"measurement": "benefit in controlling the RLS, earlier treatment", "setting": "[1]; Example 2, person", "value": "some benefit"}
    ]},
    {"smiles": "N[C@@H](Cc1ccc(O)c(O)c1)C(=O)O", "note": "[levodopa]", "values": [
      {"measurement": "benefit in controlling the RLS, earlier treatment", "setting": "[1]; Example 2, person", "value": "some benefit"}
    ]},
    {"smiles": "O=C1Nc2ccc(Cl)cc2C(c2ccccc2Cl)=NC1O", "note": "(stereo not shown) [lorazepam]", "values": [
      {"measurement": "benefit of earlier treatment of the RLS", "setting": "[1]; Example 1, patient", "value": "some benefit"}
    ]},
    {"smiles": "CCCC(C)(COC(N)=O)COC(N)=O", "note": "[meprobamate]", "values": [
      {"measurement": "benefit in controlling the RLS, earlier treatment", "setting": "[1]; Example 2, person", "value": "some benefit"}
    ]},
    {"smiles": "CC(CN1c2ccccc2Sc2ccccc21)N(C)C", "note": "(stereo not shown) [promethazine]", "values": [
      {"measurement": "benefit in controlling the RLS, earlier treatment", "setting": "[1]; Example 2, person", "value": "some benefit"}
    ]},
    {"smiles": "CC1(C)O[C@@H]2[C@@H](CO[C@@]3(COS(N)(=O)=O)OC(C)(C)O[C@@H]23)O1", "note": "[topiramate, 2,3:4,5-bis-O-(1-methylethylidene)-β-D-fructopyranose sulfamate]", "values": [
      {"measurement": "RLS symptoms", "setting": "[1]; Example 1, patient, topiramate 25 mg increased to 75 mg/day, with sertraline HCl 100 mg/day, lorazepam and alprazolam discontinued", "value": "reduced"},
      {"measurement": "restless legs syndrome symptoms, patient report", "setting": "[1]; Example 2, person, 25 mg/day increased to 300 mg/day during six months", "value": "successfully reduced"},
      {"measurement": "effectiveness for RLS compared with carisoprodol, patient report", "setting": "[1]; Example 3, person", "value": "more effective than carisoprodol"},
      {"measurement": "effectiveness for RLS of topiramate and clonazepam in combination, patient report", "setting": "[1]; Example 3, person, the two drugs in combination", "value": "more effective than either drug alone"},
      {"measurement": "effectiveness for restless leg syndrome compared with clonazepam 6 mg HS, patient report", "setting": "[1]; Example 3, person, topiramate 100 mg HS", "value": "as effective as clonazepam 6 mg HS"},
      {"measurement": "efficacy in treating seizures in clinical trials", "setting": "[2]", "value": "effective"},
      {"measurement": "block of seizures", "setting": "seizures", "value": "effectively block seizures"},
      {"measurement": "block of seizures", "setting": "kindled epilepsy", "value": "effectively block seizures"}
    ]},
    {"smiles": "OC(CCN1CCCCC1)(c1ccccc1)C1CCCCC1", "note": "(stereo not shown) [trixenryphenidyl]", "values": [
      {"measurement": "side effects", "setting": "[3]", "value": "dry mouth, blurred vision and amnesia"}
    ]}
  ]
}
